Data: publication PMC8306578, “[^68Ga]Ga-DFO-c(RGDyK): Synthesis and Evaluation of Its Potential for Tumor Imaging in Mice” (International Journal of Molecular Sciences, 2021)
Read-outs that look alike come from different tables or passages of the source.

Key:
[1] = assay type: physicochemical; settings: pH 7.4
Procedure: Aliquots of 50 μL were added to 450 μL PBS and 500 μL octanol, and the mixture was vigorously vortexed for 20 min at 1500 rpm. The aqueous and organic solvents were separated by centrifugation (2 min at 2000× g), and 50 μL aliquots of both layers were collected and measured in a gamma counter (PerkinElmer, Waltham, MA, USA). Log p values were calculated from the obtained data in Microsoft Office Excel 2010 (Microsoft, Redmond WA, USA) (mean of n = 6).

U-87 MG cells = experiment: Cell uptake assay in U-87 MG cells; assay type: cell-based, human; settings: 7 nM tracer, 500-fold excess (3.5 µM) inhibitor, 30-90 min, 37 °C
Procedure: (§1) Human glioblastoma multiforme U-87 MG cells (ATCC, Manassas, VA, USA) were cultured in Dulbecco’s Modified Eagle Medium (Merck, Darmstadt, Germany) supplemented with 10% fetal bovine serum, 0.1 mM non-essential amino acids, and 1.0 mM sodium pyruvate at 37 °C in a 5% carbon dioxide humidified incubator. Human melanoma cell lines M21 (fluorescence-activated cell sorting selected clone, which stably express αvβ3 integrin; αvβ3 integrin-positive) and M21-L (αvβ3 integrin-negative) originated from prof. Cheresh, Departments of Immunology and Vascular Biology, The Scripps Research Institute, La Jolla, CA, USA and were a kind gift of prof. Decristoforo, Department of Nuclear Medicine, Medical University Innsbruck, Austria. Both M21 and M21-L cells were cultured in Dulbecco’s Modified Eagle Medium (Merck, Darmstadt, Germany) supplemented with 10% fetal bovine serum. All the cells were subcultured and used for experiments at a confluency of 70–90%. Cell uptake assays were performed in 24-well plates cell at cellular confluency of 70–90%. […] Afterwards, the 24-well plates were rinsed with PBS and the cells were lysed by 0.1 M NaOH and measured for radioactivity in the gamma counter. The uptake of [^68Ga]Ga-DFO-c(RGDyK) was calculated as the mean of the percentage of the applied dose ± standard deviation.

M21 cells = experiment: Cell uptake assay in M21 (αvβ3-positive) cells; assay type: cell-based, human; settings: 7 nM tracer, 500-fold excess (3.5 µM) inhibitor, 60 min, 37 °C
Procedure: as §1

[2] = mouse, in vivo
Procedure: The animal studies were performed using female 8–10-week-old Balb/c and athymic Balb/c nude mice (Envigo, Horst, The Netherlands). The animals were acclimatized to laboratory conditions for 1 week prior to experimental use and housed in a specific-pathogen-free animal facility with free access to animal chow and water. During the experiments, general health and body weight of the animals were monitored. The number of animals was reduced as much as possible (n = 3 per group and time point) for all in vivo experiments. The tracer injection as well as small animal imaging was carried out under 2% isoflurane anesthesia (FORANE, Abbott Laboratories, Abbott Park, IL, USA) to minimize animal suffering and to prevent animal motion. […] The animals were sacrificed by cervical dislocation at 30 and 90 min post-injection (p.i.). Organs and tissues of interest (blood, spleen, pancreas, stomach, intestines, kidneys, liver, heart, lung, muscle, bone, and tumor) were collected, weighed, and measured in the gamma counter. The results were expressed as percentage of injected dose per gram organ (% ID/g).

[3] = design: dose or concentration left out as unconfirmed; settings: mouse, in vivo
Procedure: (§2) The animal studies were performed using female 8–10-week-old Balb/c and athymic Balb/c nude mice (Envigo, Horst, The Netherlands). The animals were acclimatized to laboratory conditions for 1 week prior to experimental use and housed in a specific-pathogen-free animal facility with free access to animal chow and water. During the experiments, general health and body weight of the animals were monitored. The number of animals was reduced as much as possible (n = 3 per group and time point) for all in vivo experiments. […]
(§3) For animal tumor models, athymic Balb/c nude mice were subcutaneously injected in the right flank with 5 × 10^6 U-87 MG cells mixed with Matrigel Matrix (Corning, NY, USA) at a 1:1 ratio or in the right and left flank with 5 × 10^6 M21 and M21-L cells. Tumor growth was continuously monitored by caliperation. […]
The animals were sacrificed by cervical dislocation at 30 and 90 min post-injection (p.i.). Organs and tissues of interest (blood, spleen, pancreas, stomach, intestines, kidneys, liver, heart, lung, muscle, bone, and tumor) were collected, weighed, and measured in the gamma counter. The results were expressed as percentage of injected dose per gram organ (% ID/g).

U-87 MG tumor = experiment: Static PET/CT imaging in U-87 MG tumor-bearing Balb/c nude mice; assay type: in vivo, mouse; settings: U-87 MG tumor mice, 30 and 90 min p.i.
Procedure: as §2, §3
(§4) PET/CT imaging of the experimental animals was performed with an Albira PET/SPECT/CT small animal imaging system (Bruker Biospin Corporation, Woodbridge, CT, USA). […] After reconstruction, the acquired data was viewed and analyzed with the appropriate software (PMOD software, PMOD Technologies Ltd., Zurich, Switzerland and VolView software, Kitware, Clifton Park, NY, USA).

M21 tumor = experiment: Static PET/CT imaging in M21 (αvβ3-positive) xenografted Balb/c nude mice; assay type: in vivo, mouse; settings: αvβ3 integrin-positive (M21) tumor tissue, 30 and 90 min p.i.
Procedure: as §2, §3, §4

M21-L tumor = experiment: Static PET/CT imaging in M21-L (αvβ3-negative) xenografted Balb/c nude mice; assay type: in vivo, mouse; settings: αvβ3 integrin-negative (M21-L) tumor tissue, 30 and 90 min p.i.
Procedure: as §2, §3, §4

SMILES: CC(=O)N(O)CCCCCNC(=O)CCC(=O)N(O)CCCCCNC(=O)CCC(=O)N(O)CCCCCNC(=S)Nc1ccc(NC(=S)NCCCC[C@@H]2NC(=O)[C@@H](Cc3ccc(O)cc3)NC(=O)[C@H](CC(=O)O)NC(=O)CNC(=O)[C@H](CCCNC(=N)N)NC2=O)cc1 [[^68Ga]Ga-DFO-c(RGDyK), metal not drawn]
- logP [1]: -2.01 ± 0.08
- Blocking of cell uptake by excess cold NODAGA-c(RGDyK) (U-87 MG cells): could be blocked with NODAGA-c(RGDyK) by about half
- Blocking of cell uptake by excess cold NODAGA-c(RGDyK) (M21 cells): could only be blocked for the αvβ3-positive cells (M21)
- tissue uptake at 1.5 h ([2]; Activity concentration in intestines): 1.99 ± 0.01 %ID/g
- tissue uptake at 1.5 h ([2]; Activity concentration in kidneys): 5.31 ± 0.12 %ID/g
- tissue uptake at 1.5 h ([2]; Activity concentration in stomach): 1.78 ± 0.05 %ID/g
- tissue uptake at 0.5 h [3]: 3.03 ± 0.62 %ID/g
- tissue uptake at 1.5 h [3]: 1.54 ± 0.56 %ID/g
- PET/CT tumor visualization (U-87 MG tumor): clearly visualizing the tumor
- PET/CT tumor uptake (M21 tumor): specific uptake of the radiotracer
- PET/CT tumor uptake (M21-L tumor): no uptake was observed
